Here are results for eight molecules from ChEMBL document CHEMBL4715688, “Discovery, Optimization, and in Vivo Evaluation of Benzimidazole Derivatives AM-8508 and AM-9635 as Potent and Selective PI3Kδ Inhibitors” (J Med Chem, 2016).

A short description of data set [1]: Aqueous solubility of the compound in PBS buffer at pH 7.4 incubated for 72 hrs by HPLC analysis. The format is physicochemical.
Data set [2] is described as follows: Metabolic stability in human liver microsomes assessed as metabolic turnover at 1 uM measured after 30 mins in presence of NADPH by LC/MS analysis. Format: ADME, Microsome. As to conditions: read-out: Drug metabolism.
The nature of data set [3]: Metabolic stability in rat liver microsomes assessed as metabolic turnover at 1 uM measured after 30 mins in presence of NADPH by LC/MS analysis. The format is ADME, Microsome. As to conditions: read-out: Drug metabolism.
The nature of data set [4]: Clearance in male Sprague-Dawley rat at 0.5 mg/kg, iv. The format is ADME, organism-based. As to conditions: in vivo.
A short description of data set [5]: Unbound clearance in male Sprague-Dawley rat at 0.5 mg/kg, iv. The format is ADME, organism-based. As to conditions: in vivo.
A short description of data set [6]: Oral bioavailability in male Sprague-Dawley rat at 2 mg/kg. The format is ADME, organism-based. The note with it: in vivo.
The nature of data set [7]: Clearance in male Sprague-Dawley rat at […], iv. As to conditions: in vivo, dose 0.71 mg/kg. Format: ADME, organism-based.
Data set [8] is described as follows: Clearance in male Sprague-Dawley rat at 0.72 mg/kg, iv. The note with it: in vivo. Format: ADME, organism-based.
Data set [9] is described as follows: Clearance in male Sprague-Dawley rat at 0.8 mg/kg, iv. The format is ADME, organism-based. As to conditions: in vivo.

In brackets after ≈: the same amount, converted by molar mass.

As for `C[C@H](Nc1ncnc(N)c1C#N)c1nc2ccc(F)cc2n1-c1cc(F)cc(F)c1`, the concentration in solution in data set [1] (solubility at 72 h) was 305 µM (≈ 125 µg/mL). The figures for the metabolised at 0.5 h, 1 µM in [2] and in [3] were 11% and 30%, respectively. In data set [4], this molecule gave a clearance of 44 mL/min/kg. Further, the CL free in data set [5] was found to be 338 mL/min/kg.

In data set [1], `C[C@H](Nc1ncnc(N)c1C#N)c1nc2ccc(F)cc2n1-c1ccccc1` came in with a solubility at 72 h of 374 µM (≈ 140 µg/mL). Besides, the metabolised at 0.5 h, 1 µM is less than 10% in data set [2] and 26% in [3]. In addition, the clearance in data set [4] was 40.2 mL/min/kg. In [5], this molecule showed a CL free of 447 mL/min/kg.

With `C[C@H](Nc1ncnc(N)c1C#N)c1nc2ccc(F)cc2n1-c1cncc(F)c1`, in [1], the concentration in solution (solubility at 72 h) came to 500 µM (≈ 196 µg/mL). For the same molecule, the metabolised at 0.5 h, 1 µM in [2] and in data set [3] was less than 10% each time. The molecule also had a clearance in data set [4] of 16.5 mL/min/kg. Further, the CL free in data set [5] is 51.7 mL/min/kg. This molecule registered a bioavailability in data set [6] of 41%.

`C[C@H](Nc1ncnc(N)c1C#N)c1nc2ccc(F)cc2n1-c1ccc(F)cc1`: in [1], the solubility at 72 h turned out to be 353 µM (≈ 138 µg/mL). The metabolised at 0.5 h, 1 µM in data set [2] is less than 10%; in data set [3] it was 22%. The clearance in data set [4] is 29.7 mL/min/kg. In data set [5], this molecule returned a CL free of 300 mL/min/kg.

`C[C@H](Nc1ncnc(N)c1C#N)c1nc2ccc(F)cc2n1-c1ccccn1` returned a solubility at 72 h in data set [1] of 500 µM (≈ 187 µg/mL). In addition, the metabolised at 0.5 h, 1 µM in data set [2] and in data set [3] was less than 10% each time. The molecule also had a clearance in data set [4] of 16.2 mL/min/kg. The molecule further displayed a CL free in data set [5] of 73.3 mL/min/kg. The molecule also had a bioavailability in data set [6] of 58%.

In [1], `C[C@H](Nc1ncnc(N)c1C#N)c1nc2ccc(F)cc2n1-c1cccnc1` showed a solubility at 72 h of 474 µM (≈ 177 µg/mL). In addition, the metabolised at 0.5 h, 1 µM in data set [2] and in [3] was less than 10% throughout. The same molecule yielded a CL free in data set [5] of 43.3 mL/min/kg. Also, the bioavailability in data set [6] amounted to 45%. The molecule further gave a clearance in data set [7] of 15.5 mL/min/kg.

As for `C[C@H](Nc1ncnc(N)c1C#N)c1nc2ccc(F)cc2n1-c1cccc(F)c1`, the solubility at 72 h in [1] is 401 µM (≈ 157 µg/mL). In addition, the metabolised at 0.5 h, 1 µM stood at 15% in data set [2] and 28% in data set [3]. The clearance in data set [8] is 46 mL/min/kg. Moreover, the CL free in [5] came out at 460 mL/min/kg.

The molecule `C[C@H](Nc1ncnc(N)c1C#N)c1nc2ccc(F)cc2n1-c1cccc(S(C)(=O)=O)c1` gave a solubility at 72 h in data set [1] of 500 µM (≈ 226 µg/mL). Also, the metabolised at 0.5 h, 1 µM in [2] and in [3] was less than 10% each time. This molecule also had a clearance in [9] of 71.7 mL/min/kg. Moreover, the CL free in data set [5] is 205 mL/min/kg.
